Experiments:
[1] = tested on: TNFα production in human whole blood; experiment: Human Whole Blood test: inhibition of LPS-stimulated TNFα production; type: cell-based
Protocol: The ability of the compounds of this invention to inhibit TNFα production was also assessed in a human whole blood assay. Human whole blood secretes TNFα when stimulated with LPS. This property of blood forms the basis of an assay which is used as a secondary test for compounds which profile as active in the PBMC test.
Heparinised (10 units/ml) human blood was obtained from volunteers. 160 μl whole blood were added to 96 well round-bottom plates (Corning 25850). Compounds were solubilised and serially diluted in RPMI 1640 medium (Gibco) supplemented with 50 units/ml penicillin, 50 μg/ml streptomycin and 2 mM glutamine, as detailed above. 20 μl of each test concentration was added to appropriate wells (triplicate cultures). 20 μl of RPMI 1640 medium supplemented with antibiotics and glutamine was added to control wells. Plates were incubated for 30 minutes at 37° C. (humidified incubator), prior to addition of 20 μl LPS (final concentration 10 μg/ml). RPMI 1640 medium was added to control wells. Six “LPS alone” and four “medium alone” controls were included on each plate. A known TNFα synthesis/secretion inhibitor was included in each test. Plates were incubated for 6 hours at 37° C. (humidified incubator). […] TNFα levels were measured by ELISA (see WO92/10190 and Current Protocols in Molecular Biology, vol 2 by Frederick M. Ausbel et al., John Wiley and Sons Inc.). […]

[2] = target: T1, p38α (Homo sapiens, UniProt Q16539); experiment: In vitro enzyme assay, p38α; type: biochemical; settings: read-out: IC50 against p38α
T1 construct: c-myc (N); 6His (N); made in house; host or cells: E. coli (PET vectors)
T1 sequence (Q16539 whole entry): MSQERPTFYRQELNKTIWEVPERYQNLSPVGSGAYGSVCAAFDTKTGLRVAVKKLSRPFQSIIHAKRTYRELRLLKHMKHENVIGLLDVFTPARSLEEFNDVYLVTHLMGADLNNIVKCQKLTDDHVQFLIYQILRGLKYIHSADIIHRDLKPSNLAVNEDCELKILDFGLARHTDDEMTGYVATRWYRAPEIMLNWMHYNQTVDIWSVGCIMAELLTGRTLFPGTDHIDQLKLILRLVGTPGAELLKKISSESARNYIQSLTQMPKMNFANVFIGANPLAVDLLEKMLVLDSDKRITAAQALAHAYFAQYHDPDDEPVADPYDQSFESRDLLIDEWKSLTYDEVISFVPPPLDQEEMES
Protocol: The ability of compounds of the invention to inhibit the enzyme p38 kinase was assessed. Activity of test compounds against each of the p38α and p38β isoforms of the enzyme was determined. […]
Test compounds were solubilised in DMSO and 10 μl of a 1:10 diluted sample in ‘Kinase Buffer’ was added to a well in a Microtiter plate. […] The precipitated protein was phosphorylated by p38 kinase and test compounds were assessed for their ability to inhibit this phosphorylation. The plates were filtered using a Canberra Packard Unifilter and washed with 2% TCA, dried overnight and counted on a Top Count scintillation counter.
Test compounds were tested initially at a single dose and active compounds were retested to allow IC50 values to be determined.

Compound `Cc1ccc(NC(=O)c2cc(F)cc(N3CCOCC3)c2)cc1Nc1cc(C(N)=O)nc(Cl)n1` [6-Carbamoyl-2-chloro-4-[5-(3-fluoro-5-morpholinobenzamido)-2-methylanilino]-pyrimidine] has an IC50 [1] of about 16 µM and an IC50 [2] of about 30 nM.
